Laboratory results: US12630557B2, “Salt and crystal form of pyrimidine compound, and preparation methods therefor” (Sichuan Kelun-Biotech Biopharmaceutical Co., Ltd., priority 2020, dated 2026)
Values after ≈ are worked out from the molar mass of the structure shown.

Key:
[1] = Solubility determination at different pH; type: physicochemical; details: aqueous buffer
CCDC6-RET = target: T1, CCDC6-RET (Homo sapiens, UniProt P07949); test: HTRF KinEASE-TK RET enzyme inhibition; type: biochemical; details: CCDC6-RET 0.3 nM, ATP 15 μM; read-out: Inhibitory IC50 on RET enzyme
T1 construct: the other entry of the earlier key: CCDC6 (Q16204, Coiled-coil domain-containing protein 6)
T1 sequence (P07949 with tags, fused parts or gaps): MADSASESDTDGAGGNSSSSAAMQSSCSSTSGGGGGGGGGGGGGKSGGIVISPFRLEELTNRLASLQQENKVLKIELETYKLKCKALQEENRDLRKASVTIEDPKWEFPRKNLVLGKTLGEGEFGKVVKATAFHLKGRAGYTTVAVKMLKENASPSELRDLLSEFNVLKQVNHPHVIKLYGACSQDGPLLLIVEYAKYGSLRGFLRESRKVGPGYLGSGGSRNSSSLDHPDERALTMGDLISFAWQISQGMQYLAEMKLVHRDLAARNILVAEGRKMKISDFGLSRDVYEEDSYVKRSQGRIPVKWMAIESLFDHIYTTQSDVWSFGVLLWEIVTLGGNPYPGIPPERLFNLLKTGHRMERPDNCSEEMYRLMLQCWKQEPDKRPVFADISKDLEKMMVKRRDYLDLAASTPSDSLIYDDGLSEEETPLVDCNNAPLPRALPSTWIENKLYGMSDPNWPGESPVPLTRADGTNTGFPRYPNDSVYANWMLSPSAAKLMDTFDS
Protocol: (§1) The inhibitory effects of the crystal form A of the fumarate salt of the compound I on the activity of wild-type RET, mutant-type RET (RET^V804M RET^V804L, and RET^M918T), and fusion-type RET (CCDC6-RET and KIF5B-RET) were determined using HTRF KinEASE-TK (Cisbio) kit.
(§2) After pre-incubation of the above different types of RET enzymes and different concentrations of the test compounds (9 concentration points) at room temperature for 30 min, a substrate and adenosine triphosphate (ATP) were added to initiate the reaction. After incubation at room temperature for 40 min, TK antibody-cryptate and streptavidin-XL665 were added, and after incubation at room temperature for 60 min, the detection was performed.
(§3) With the solvent group (DMSO) as the negative control and the buffer group (without RET enzyme) as the blank control, the relative inhibitory activity percentages of the compound at different concentrations were computed as per the following equation: Relative inhibitory activity percentage=1−(compound group of different concentrations-blank control)/(negative control-blank control)*100%
(§4) The relative inhibitory activity percentages of the compound at different concentrations were plotted with respect to the compound concentrations, and the curve was fitted in accordance with a four-parameter model to compute the IC50 value as per the following equation: y=min+(max−min)/(1+(x/IC50)^(−Hillslope)) • where y is the relative inhibitory activity percentage, max and min are a maximum value of the fitted curve, and a minimum value of the fitted curve respectively, x is a logarithmic concentration of the compound, and Hillslope is a slope of the curve.

RET^M918T = RET^M918T (Homo sapiens, UniProt P07949, M918T); test: HTRF KinEASE-TK RET enzyme inhibition; type: biochemical; details: RET^M918T 0.3 nM, ATP 15 μM; read-out: Inhibitory IC50 on RET enzyme
RET^M918T, sequence (P07949 29-1114 M918T): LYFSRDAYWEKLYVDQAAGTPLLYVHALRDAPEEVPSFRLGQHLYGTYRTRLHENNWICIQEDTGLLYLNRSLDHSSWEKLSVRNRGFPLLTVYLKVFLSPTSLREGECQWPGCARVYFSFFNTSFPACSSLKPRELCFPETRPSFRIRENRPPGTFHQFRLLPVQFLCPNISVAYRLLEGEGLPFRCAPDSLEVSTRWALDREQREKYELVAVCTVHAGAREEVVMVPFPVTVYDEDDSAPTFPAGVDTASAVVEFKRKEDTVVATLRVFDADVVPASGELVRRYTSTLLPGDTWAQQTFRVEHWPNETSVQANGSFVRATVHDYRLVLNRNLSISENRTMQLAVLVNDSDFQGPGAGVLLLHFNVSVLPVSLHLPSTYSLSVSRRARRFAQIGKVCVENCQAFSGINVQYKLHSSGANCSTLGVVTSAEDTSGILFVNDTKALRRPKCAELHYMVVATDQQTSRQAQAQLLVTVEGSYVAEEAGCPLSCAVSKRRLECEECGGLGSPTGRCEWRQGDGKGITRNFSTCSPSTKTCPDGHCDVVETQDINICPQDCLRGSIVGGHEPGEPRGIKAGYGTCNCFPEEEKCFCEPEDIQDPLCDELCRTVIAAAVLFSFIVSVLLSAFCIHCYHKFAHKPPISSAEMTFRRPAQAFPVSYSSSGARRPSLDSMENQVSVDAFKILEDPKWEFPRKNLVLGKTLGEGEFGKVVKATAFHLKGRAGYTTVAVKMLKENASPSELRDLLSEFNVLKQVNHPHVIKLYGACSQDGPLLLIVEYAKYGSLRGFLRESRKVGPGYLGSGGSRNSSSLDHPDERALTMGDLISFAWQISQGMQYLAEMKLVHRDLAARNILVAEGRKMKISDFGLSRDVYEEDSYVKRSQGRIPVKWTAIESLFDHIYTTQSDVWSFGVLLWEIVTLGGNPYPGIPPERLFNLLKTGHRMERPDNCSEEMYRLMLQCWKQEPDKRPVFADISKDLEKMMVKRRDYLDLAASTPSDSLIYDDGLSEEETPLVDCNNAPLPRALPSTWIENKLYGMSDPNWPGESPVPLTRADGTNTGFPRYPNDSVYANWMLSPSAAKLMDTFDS
Protocol: as §1, §2, §3, §4

wild-type RET = wild-type RET (Homo sapiens, UniProt P07949); test: HTRF KinEASE-TK RET enzyme inhibition; type: biochemical; details: RET 0.2 nM, ATP 30 μM; read-out: Inhibitory IC50 on RET enzyme
wild-type RET, sequence (P07949 29-1114): as the sequence (P07949 29-1114 M918T) above, with T890M counted along it
Protocol: as §1, §2, §3, §4

RET^V804L = RET^V804L (Homo sapiens, UniProt P07949, V804L); test: HTRF KinEASE-TK RET enzyme inhibition; type: biochemical; details: RET^V804L 0.6 nM, ATP 10 μM; read-out: Inhibitory IC50 on RET enzyme
RET^V804L, sequence (P07949 29-1114 V804L): as the sequence (P07949 29-1114 M918T) above, with V776L, T890M counted along it
Protocol: as §1, §2, §3, §4

RET^V804M = RET^V804M (Homo sapiens, UniProt P07949, V804M); test: HTRF KinEASE-TK RET enzyme inhibition; type: biochemical; details: RET^V804M 0.6 nM, ATP 15 μM; read-out: Inhibitory IC50 on RET enzyme
RET^V804M, sequence (P07949 29-1114 V804M): as the sequence (P07949 29-1114 M918T) above, with V776M, T890M counted along it
Protocol: as §1, §2, §3, §4

[2] = Dynamic water adsorption (DVS) experiment; type: physicochemical; details: 25° C.
Protocol: Device information: SMS (Surface Measurement Systems) Intrinsic
Experimental method: temperature: 25° C.; protective gas N2; maximum equilibration time: 120 min; RH range: 0%-90%-0%.

[3] = Pharmacokinetic study in mice; type: in vivo; details: female Balb/c mice, PO 1 mg/kg, plasma compound I
Protocol: Female Balb/c mice (6 mice) were orally administered with 1 mg/kg of the crystal form A of the fumarate salt of the compound I by gavage. The compound was first dissolved with 0.5% methylcellulose solution and ultrasonicated to ensure complete dissolution or uniform suspension of the compound. 30 min, 1 […], and 24 h after administration, 0.2 mL of blood (EDTA-K2 anticoagulated) was venously collected. The collected whole blood was temporarily stored in an ice box, and centrifuged for 10 min within 2 h to separate the plasma (4° C.). The collected plasma was stored in a refrigerator at -80° C. prior to testing. The blood concentration of the compound I was detected by LC-MS/MS, and the linear range was from 10 to 10000 ng/mL.

[4] = Stability experiment under conditions of influencing factors (high temperature / high humidity); type: physicochemical; details: for HPLC purity: area normalized purity
Description: Stability data of the crystal form A of the fumarate salt of the compound I under conditions of influencing factors is provided in Table 17 (HPLC purity is area normalized purity).

[5] = High humidity 25° C. ± 2° C./92.5% RH ± 5% RH, Day 30
[6] = High temperature 60° C. ± 2° C., Day 30

Cc1cc(Nc2cc(C)[nH]n2)nc(-c2ccc(N3CC4CC(C3)N4Cc3ccc(-n4cc(F)cn4)nc3)nc2)n1
solubility ([1]; Buffer pH 1.0): ≥ 12200 µg/mL | solubility ([1]; Buffer pH 2.0): 3500 µg/mL (≈ 6.51 mM) | solubility ([1]; Buffer pH 3.0): 2500 µg/mL (≈ 4.65 mM) | IC50 (CCDC6-RET): 2.48 ± 1 nM | IC50 (RET^M918T): 2.23 ± 0.64 nM | IC50 (wild-type RET): 0.56 ± 0.09 nM | IC50 (RET^V804L): 1.59 ± 0.51 nM | IC50 (RET^V804M): 0.6 ± 0.2 nM | crystal form before and after the DVS test ([2]; RH range 0%-90%-0%): remained changed | desorption of adsorbed water (DVS) ([2]; humidity decreased from 90% to 0%): fully desorbed | water absorbed (DVS) ([2]; humidity increased to 90%): about 0.7% | Cl [3]: 1.47 mL/min/kg | Vd [3]: 0.356 L/kg | AUC(0-inf) ([3]; mouse): 11400 ng·h/mL | AUC(0-t) ([3]; mouse): 11400 ng·h/mL | Cmax ([3]; mouse): 2060 ng/mL | Tmax ([3]; mouse): 1 h | half-life ([3]; mouse): 2.81 h | Appearance ([4]; Day 0): White solid | HPLC purity ([4]; Day 0): 99.6% | Appearance [4, 5]: White solid | Crystal form [4, 5]: form A | HPLC purity [4, 5]: 99.5% | Appearance [4, 6]: White solid | Crystal form [4, 6]: form A | HPLC purity [4, 6]: 99.3%
